Experimental data as given in article PMC4827351 (Chemical Science, 2015).

Columns and labels:
E. coli ATCC 25922 = experiment: Cuvette-based bacterial agglutination assay; assay type: cell-based, Escherichia coli; conditions: n = 3
Source text: We previously reported a simple cuvette-based in vitro agglutination assay that enables time-dependent monitoring of agglutination of viable bacteria by HD6.[15] We employed this assay to further characterize the trypsin-dependent activity of proHD6 on cultured bacterial cells (Fig. 4a and b). […] In these assays, we defined the “supernatant” as the culture solution in the top portion of the cuvette and the “re-suspension” as the mixture that results from agitating the entire culture after the 6 h incubation period.[15] We observed an ≈1.5-fold log reduction in CFU mL^–1 for the “supernatant” from cultures treated with combination of trypsin and proHD6 relative to the no-peptide control (Fig. 4c). Following “re-suspension”, the total CFU mL^–1 in the cuvette was indistinguishable from that of either the untreated control culture or the bacterial culture treated with proHD6.
Fig. 4 Bacterial agglutination assays for native and cleaved proHD6. (a) Agglutination of E. coli ATCC 25922 and L. monocytogenes ATCC 19115 in 50% MHB treated with proHD6 in the absence and presence of 0.4 μM trypsin or HD6 (control). (b) Representative images of cuvettes containing E. coli ATCC 25922 or L. monocytogenes ATCC 19115 after incubation with 20 μM peptides for 2 h at room temperature. (c) Plots of colony forming units (CFU mL^–1) of E. coli ATCC 25922 and L. monocytogenes ATCC 19115 after treatment with 20 μM peptides for 6 h (mean ± SDM, n = 3). Supernatant is defined as the clarified medium solution in the top portion of the culture and resuspension is defined as the mixture after thoroughly agitating the heterogeneous solution.
Stock solutions (50 μL) of HD6 and proHD6 (0, 50, 100, and 200 μM; 10× concentrations) were prepared in sterile Milli-Q water. If trypsin was required, aliquots of a 1 mg mL^–1 stock solution of TPCK-treated trypsin (Worthington) prepared in sterile Milli-Q water were added to solutions of proHD6 to afford a final trypsin concentration of 0.01 mg mL^–1. The assays were then conducted following the reported procedure.[15] […]

E. coli Nissle = experiment: SEM analysis of bacterial agglutination; assay type: cell-based, Escherichia coli; conditions: 3 µM proHD6 treated with trypsin before incubation (trypsin inactivated with APMSF), 30 min, 50 mM Tris-maleate pH 6.4
Procedure: Bacteria were grown aerobically at 37 °C overnight in LB media. The next morning the strains were subcultured and grown to mid-logarithmic phase in LB media. An aliquot of the bacteria (0.5–2 × 10^7 CFU mL^–1) was removed, sedimented by centrifugation (7000g × 2 min, 4 °C), washed twice with 50 mM Tris-maleate buffer, pH 6.4, and then resuspended in 0.5 mL of the 50 mM Tris-maleate buffer. The bacterial suspension was incubated at room temperature for 30 min with buffer control, 0.4 μM APMSF-inactivated trypsin, 3 μM proHD6, 3 μM trypsin-cleaved proHD6, or 3 μM HD6. Trypsin-cleaved proHD6 was prepared by incubating 30 μM proHD6 with 4 μM trypsin (Affimetrix, Santa Clara, CA) for 1 h at room temperature in 50 mM Tris-maleate buffer, pH 6.4. At the end of incubation, the trypsin was inactivated by addition of APMSF (p-amidinophenylmethylsulfonylfluoride HCl, Millipore, 25 μg mL^–1), and the mixture was added to the bacterial suspension. The APMSF-inactivated trypsin was similarly prepared, except that proHD6 was omitted from the preincubation. After a 30 min incubation, the treated bacterial suspensions were sedimented by centrifugation (7000g × 5 min, 4 °C), and the buffer supernatant was carefully removed. […]

[1] = system: Escherichia coli ATCC 25922; experiment: Antimicrobial activity assay (CFU counting); assay type: cell-based; conditions: 50 µM peptide, 1 h, 37 °C, 10 mM sodium phosphate buffer containing 1% v/v TSB, n = 3
Procedure: (§1) The assays were performed according to a literature procedure.[15] Briefly, a 90 μL aliquot of the diluted bacterial culture was added to each well and then to each well was added 10 μL of a 10× concentrated aqueous peptide solution (500 μM) or sterile Milli-Q water as a no-peptide control. The plate was incubated for 1 h (37 °C, 150 rpm). The serial dilution for CFU counting was conducted as previously reported.[15] These assays were performed with at least two independently prepared and purified samples of each peptide and in three independent trials. The resulting averages and standard deviations are reported. […]
(§2) a bE. coliL. monocytogenes
(§3) Concentration (µM) Concentration (µM)
(§4) Figure S4. Antibacterial activity assays against E. coli ATCC 25922 and L. monocytogenes ATCC 19115. The bacteria were treated with 50 µM of each peptide for 1 h at 37 ° C in 10 mM sodium phosphate buffer containing 1% v/v TSB (mean ± SDM, n = 3). An asterisk indicates no […]
(§5) Retention Time (min) Retention Time (min)
(§6) Figure S5. In vitro trypsin-catalyzed proteolysis of proHD6. Analytical HPLC traces of trypsin-treated (a) proHD6 or (b) mature HD6 (30 µM x 80 µL) at indicated time points. Absorbance at 220 nm was monitored with a reference wavelength of 500 nm. Method: 10–60% B over 30 min

[2] = system: Listeria monocytogenes ATCC 19115; experiment: Antimicrobial activity assay (CFU counting); assay type: cell-based; conditions: 50 µM peptide, 1 h, 37 °C, 10 mM sodium phosphate buffer containing 1% v/v TSB, n = 3
Procedure: as §1, §2, §3, §4, §5, §6

EPLQAEDDPLQAKAYEADAQEQRGANDQDFAVSFAEDASSSLRALGSTRAFTCHCRRSCYSTEYSYGTCTVMGINHRFCCL (disulfide (positions not given here)) [proHD6, 81-residue propeptide of human α-defensin 6, recombinant, from His6-SUMO-proHD6]
total CFU mL^-1 after re-suspension versus untreated control culture or culture treated with proHD6 (E. coli ATCC 25922; 20 µM proHD6 + trypsin, 6 h, entire culture agitated): indistinguishable | agglutination of bacterial culture in cuvette, with trypsin (E. coli ATCC 25922; proHD6 + 0.4 µM (0.01 mg/mL) trypsin, 10^8 CFU mL^-1, 50% MHB, room temperature): bacterial agglutination and sedimentation occurred | agglutination of bacterial culture in cuvette (E. coli ATCC 25922; proHD6 up to 20 µM, no trypsin, 10^8 CFU mL^-1, 50% MHB, 6 h, room temperature): remained homogeneous | bacterial agglutination (SEM), trypsin-cleaved (E. coli Nissle): entangled and agglutinated E. coli | antibacterial activity [1]: does not exhibit antibacterial activity | antibacterial activity [2]: does not exhibit antibacterial activity
